Reference: US20250326815A1, “STAPLE-CONTAINING POLYPEPTIDES AND APPLICATION THEREOF” (Soter Biopharma Pte. Ltd., priority 2021, published 2025)

Legend:
Format in all cases: cell-based
GLP-1R = biological target: T1, GLP-1R (Homo sapiens, UniProt P43220); assay: In vitro agonistic activity on GLP-1R (cAMP assay); details: HEK293 cell line; for Agonistic activity on GLP-1R Max Activity (%): Max Dose 20 nM
T1 construct: host or cells: HEK293
Description: (§1) The cell lines were constructed by Shanghai WuXi AppTec.
(§2) The compounds to be assayed were serially diluted 4-fold with Bravo to obtain 10 concentrations, with a starting concentration of 30 μM.
(§3) 1) 100 nL of the compound was transferred to an OptiPlate-384 plate using Echo.
(§4) 2) The OptiPlate-384 plate was centrifuged at 1000 rpm for 5 seconds.
(§5) 1) A GLP-1R/GIPR/GCGR cell cryopreservation tube was quickly placed in warm water at 37° C. to thaw.
(§6) 2) The cell suspension was transferred to a 15 mL centrifuge tube, and gently washed with 10 ml of HBSS.
(§7) 3) The centrifuge tube was centrifuged at 1000 rpm at room temperature for 1 minute.
(§8) 4) The supernatant was discarded.
(§9) 5) The cells at the bottom were gently dispersed and gently washed with 10 ml of HBSS. The cells were centrifuged and sedimented, and finally resuspended with the assay buffer.
(§10) 6) Vi-cell was used to measure the cell density and viability.
(§11) 7) The concentration of GLP-1R/GIPR/GCGR cells was diluted to 2.0*105/mL with the assay buffer.
(§12) 8) […] of the diluted cell suspension was transferred to the OptiPlate-384 plate.
(§13) 9) The plate was incubated at room temperature for 30 minutes.
(§14) 1) 10 μL of 800 nM gradient diluted cAMP standard was added into an empty well of the OptiPlate-384 plate.
(§15) 2) 10 μL of cAMP assay reagent was added.
(§16) 3) The OptiPlate-384 plate was covered with a TopSeal-A film and incubated at room temperature for 60 minutes.
(§17) The TopSeal-A was peeled off and the plate was read on the EnVision.

GCGR = biological target: T2, GCGR (Homo sapiens, UniProt P47871); assay: In vitro agonistic activity on GCGR (cAMP assay); details: HEK293 cell line; for Agonistic activity on GCGR Max Activity (%): Max Dose 100 nM
T2 construct: host or cells: HEK293
T2 sequence (P47871 26-477, species assumed): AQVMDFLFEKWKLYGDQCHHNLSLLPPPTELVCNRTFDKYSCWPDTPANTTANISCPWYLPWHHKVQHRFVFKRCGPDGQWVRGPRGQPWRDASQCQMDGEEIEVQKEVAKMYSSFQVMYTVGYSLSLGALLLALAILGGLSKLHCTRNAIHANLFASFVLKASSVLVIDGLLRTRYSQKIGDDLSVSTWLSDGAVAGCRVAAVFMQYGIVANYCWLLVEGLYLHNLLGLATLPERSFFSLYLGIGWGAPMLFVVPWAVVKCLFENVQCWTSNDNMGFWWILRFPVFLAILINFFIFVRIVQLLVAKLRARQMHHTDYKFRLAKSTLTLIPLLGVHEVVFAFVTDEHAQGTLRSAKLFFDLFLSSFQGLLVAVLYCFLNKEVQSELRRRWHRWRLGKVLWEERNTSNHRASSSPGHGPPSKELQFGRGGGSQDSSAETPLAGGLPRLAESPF
Description: as §1, §2, §3, §4, §5, §6, §7, §8, §9, §10, §11, §12, §13, §14, §15, §16, §17

GIPR = biological target: T3, GIPR (Homo sapiens, UniProt P48546); assay: In vitro agonistic activity on GIPR (cAMP assay); details: CHO cell line; for Agonistic activity on GIPR Max Activity (%): Max Dose 20 nM
T3 construct: host or cells: CHO
T3 sequence (P48546 22-466): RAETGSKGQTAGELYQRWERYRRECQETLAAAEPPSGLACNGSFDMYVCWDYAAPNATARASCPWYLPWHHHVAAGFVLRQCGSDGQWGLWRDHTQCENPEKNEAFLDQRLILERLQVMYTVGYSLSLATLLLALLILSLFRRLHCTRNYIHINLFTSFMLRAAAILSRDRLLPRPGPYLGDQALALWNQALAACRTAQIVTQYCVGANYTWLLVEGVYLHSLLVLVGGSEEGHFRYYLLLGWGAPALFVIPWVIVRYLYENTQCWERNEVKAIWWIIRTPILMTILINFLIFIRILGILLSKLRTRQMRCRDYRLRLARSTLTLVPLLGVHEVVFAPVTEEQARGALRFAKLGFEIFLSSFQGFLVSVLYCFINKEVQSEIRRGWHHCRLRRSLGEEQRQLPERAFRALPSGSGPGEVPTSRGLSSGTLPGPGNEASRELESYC
Description: as §1, §2, §3, §4, §5, §6, §7, §8, §9, §10, §11, §12, §13, §14, §15, §16, §17

T1 sequence (P43220 24-463, species assumed): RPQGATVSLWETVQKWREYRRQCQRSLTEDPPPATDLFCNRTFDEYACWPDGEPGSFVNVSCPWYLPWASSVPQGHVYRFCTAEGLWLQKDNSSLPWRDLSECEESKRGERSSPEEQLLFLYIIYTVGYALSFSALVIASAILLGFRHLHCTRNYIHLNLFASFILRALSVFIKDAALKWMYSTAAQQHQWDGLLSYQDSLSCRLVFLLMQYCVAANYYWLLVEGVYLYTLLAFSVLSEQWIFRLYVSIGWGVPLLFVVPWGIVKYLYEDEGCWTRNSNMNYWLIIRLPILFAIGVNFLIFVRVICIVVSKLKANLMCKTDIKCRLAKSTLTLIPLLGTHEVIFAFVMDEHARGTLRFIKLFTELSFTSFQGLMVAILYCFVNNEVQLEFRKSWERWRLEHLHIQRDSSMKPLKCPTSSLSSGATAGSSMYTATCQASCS

Structure (SMILES)	EC50 (GLP-1R)	Agonistic activity on GLP-1R Max Activity (%) (GLP-1R)	EC50 (GCGR)	Agonistic activity on GCGR Max Activity (%) (GCGR)	EC50 (GIPR)	Agonistic activity on GIPR Max Activity (%) (GIPR)
CC(C)C[C@@H]1NC(=O)[C@H](CC(C)C)NC(=O)[C@H](Cc2c[nH]c3ccccc23)NC(=O)[C@@H](NC(=O)[C@@H](NC(=O)[C@H](Cc2ccccc2)NC(=O)[C@H](CCC(=O)O)NC(=O)[C@H](CCCCN)NC(=O)[C@H](C)NC(=O)[C@H](CCCCN)NC(=O)[C@H](CCCCN)NC(=O)[C@H](CCC(=O)O)NC(=O)[C@H](CC(=O)O)NC(=O)[C@H](CC(C)C)NC(=O)[C@H](Cc2ccc(O)cc2)NC(=O)[C@H](CCCCN)NC(=O)[C@H](CO)NC(=O)[C@H](Cc2ccc(O)cc2)NC(=O)[C@H](CC(=O)O)NC(=O)[C@H](CO)NC(=O)[C@@H](NC(=O)[C@H](Cc2ccccc2)NC(=O)[C@@H](NC(=O)CNC(=O)[C@H](CCC(N)=O)NC(=O)C(C)(C)NC(=O)[C@@H](N)Cc2c[nH]cn2)[C@@H](C)O)[C@@H](C)O)C(C)C)CCCCNC(=O)CN(C(=O)COCCOCCNC(=O)COCCOCCNC(=O)CC[C@H](NC(=O)CCCCCCCCCCCCCCCCCCC(=O)O)C(=O)O)CC(=O)NCCCC[C@@H](C(=O)NCC(=O)NCC(=O)N2CCC[C@H]2C(=O)N[C@@H](CO)C(=O)N[C@@H](CO)C(=O)NCC(N)=O)NC1=O [WX005]	0.112 nM	104.24%	2.99 nM	140.57%	> 20 nM	1.42%
CC(C)C[C@H](NC(=O)[C@H](CC(C)C)NC(=O)[C@H](Cc1c[nH]c2ccccc12)NC(=O)[C@H](CCC(=O)O)NC(=O)[C@@H](NC(=O)[C@H](Cc1ccccc1)NC(=O)[C@@H]1CCCCNC(=O)CN(C(=O)COCCOCCNC(=O)COCCOCCNC(=O)CC[C@H](NC(=O)CCCCCCCCCCCCCCCCCCC(=O)O)C(=O)O)CC(=O)NCCCC[C@H](NC(=O)[C@H](CCCCN)NC(=O)[C@H](CCC(=O)O)NC(=O)[C@H](CC(=O)O)NC(=O)[C@H](CC(C)C)NC(=O)[C@H](Cc2ccc(O)cc2)NC(=O)[C@H](CCCCN)NC(=O)[C@H](CO)NC(=O)[C@H](Cc2ccc(O)cc2)NC(=O)[C@H](CC(=O)O)NC(=O)[C@H](CO)NC(=O)[C@@H](NC(=O)[C@H](Cc2ccccc2)NC(=O)[C@@H](NC(=O)CNC(=O)[C@H](CCC(N)=O)NC(=O)C(C)(C)NC(=O)[C@@H](N)Cc2c[nH]cn2)[C@@H](C)O)[C@@H](C)O)C(=O)N[C@@H](C)C(=O)N[C@@H](CCCCN)C(=O)N1)C(C)C)C(=O)N[C@@H](CCC(=O)O)C(=O)NCC(=O)NCC(=O)N1CCC[C@H]1C(=O)N[C@@H](CO)C(=O)N[C@@H](CO)C(=O)NCC(N)=O [WX003]	0.0582 nM	111.18%	0.624 nM	86.01%	> 20 nM	1.57%
CC(C)C[C@H](NC(=O)[C@H](CC(C)C)NC(=O)[C@H](Cc1c[nH]c2ccccc12)NC(=O)[C@H](CCC(=O)O)NC(=O)[C@@H](NC(=O)[C@H](Cc1ccccc1)NC(=O)[C@@H]1CCCCNC(=O)CN(C(=O)COCCOCCNC(=O)COCCOCCNC(=O)CC[C@H](NC(=O)CCCCCCCCCCCCCCCCCCC(=O)O)C(=O)O)CC(=O)NCCCC[C@H](NC(=O)[C@H](CCC(=O)O)NC(=O)[C@H](CC(=O)O)NC(=O)[C@H](CC(C)C)NC(=O)[C@H](Cc2ccc(O)cc2)NC(=O)[C@H](CCCCN)NC(=O)[C@H](CO)NC(=O)[C@H](Cc2ccc(O)cc2)NC(=O)[C@H](CC(=O)O)NC(=O)[C@H](CO)NC(=O)[C@@H](NC(=O)[C@H](Cc2ccccc2)NC(=O)[C@@H](NC(=O)CNC(=O)[C@H](CCC(N)=O)NC(=O)C(C)(C)NC(=O)[C@@H](N)Cc2c[nH]cn2)[C@@H](C)O)[C@@H](C)O)C(=O)N[C@@H](CCCCN)C(=O)N[C@@H](C)C(=O)N[C@@H](CCCCN)C(=O)N1)C(C)C)C(=O)N[C@@H](CCC(=O)O)C(=O)NCC(=O)NCC(=O)N1CCC[C@H]1C(=O)N[C@@H](CO)C(=O)N[C@@H](CO)C(=O)NCC(N)=O [WX002]	0.0169 nM	106.52%	0.195 nM	144.14%	> 20 nM	4.06%
